The record followed here is patent US9732087B2, “Diamino-pyridine, pyrimidine, and pyridazine modulators of the histamine H4 receptor” (JANSSEN PHARMACEUTICA NV, priority 2008, dated 2017).

By Ki is commonly meant a measure of affinity in units of concentration, obtained from inhibition or displacement.

The structures appear in SMILES notation. Where a name gives a salt, the structure may show the parent alone.

Sequence of human H4 receptor (Q9H3N8 whole entry): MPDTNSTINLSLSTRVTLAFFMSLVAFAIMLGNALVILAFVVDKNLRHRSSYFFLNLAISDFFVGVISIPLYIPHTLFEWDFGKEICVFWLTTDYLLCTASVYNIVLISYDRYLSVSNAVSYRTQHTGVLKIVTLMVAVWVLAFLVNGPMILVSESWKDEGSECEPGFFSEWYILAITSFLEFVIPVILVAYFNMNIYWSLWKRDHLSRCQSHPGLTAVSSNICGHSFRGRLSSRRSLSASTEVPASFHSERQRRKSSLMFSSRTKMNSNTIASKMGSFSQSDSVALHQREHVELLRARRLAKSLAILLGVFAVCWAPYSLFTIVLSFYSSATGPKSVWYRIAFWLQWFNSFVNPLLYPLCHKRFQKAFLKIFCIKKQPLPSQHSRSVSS

The first assay has as its target human H4 receptor (Homo sapiens (Human), UniProt Q9H3N8). As to the kind of experiment: Binding assay on recombinant human histamine H4 receptor ([3H]histamine competition, SK-N-MC cell membranes). As to conditions: Cell Harvester Ki (nM). The method, then: Binding Assay on Recombinant Human Histamine H4Receptor
Cell pellets from SK-N-MC cells stably or transiently transfected with human H4 receptor (NCBI accession No. AF312230) were used for the binding assays. Cell pellets were homogenized in 50 mM Tris/5 mM EDTA buffer and supernatants from an 800 g spin were collected and recentrifuged at 30,000 g for 30 min. Pellets were rehomogenized in 50 mM Tris/5 mM EDTA buffer. […] Membranes were harvested by rapid filtration using the 96 well Brandel system (Table 1, Brandel) or a cell harvester (Table 1, Cell Harvester) using a Whatman GF/C filter or filter plates treated with 0.5% polyethylenimine (PEI), and washed 4 times with ice-cold 50 mM Tris/5 mM EDTA buffer. Filters were then dried, mixed with scintillant and radioactive counts were determined. […] Where activity is shown as greater than (>) a particular value, the value is the highest concentration tested.
`CCCCNc1cc(N2CCNCC2)ccn1` [Example 36, N-Butyl-4-piperazin-1-ylpyridin-2-amine]: the Ki turned out to be 104 nM.

The assay is the same for the next values; noted with them: membranes harvested with 96 well Brandel system; [3H]histamine 10 nM; average of results; read-out: Brandel Ki.
On to `CN[C@@H]1CCN(c2ccnc(NC3CC4CCC3C4)c2)C1` (stereo partly drawn) [Example 1, Bicyclo[2.2.1]hept-2-yl[4-((3R)-3-methylamino-pyrrolidin-1-yl)-pyridin-2-yl]amine dihydrochloride], for which the Ki is 1 nM.

Turning to `CN[C@@H]1CCN(c2ccnc(N[C@H]3C[C@H]4C[C@@H]([C@@H]3C)C4(C)C)c2)C1` [Example 9, 4-[(3R)-3-(Methylamino)pyrrolidin-1-yl]-N-[(1S,2S,3S,5R)-2,6,6-trimethylbicyclo[3.1.1]hept-3-yl]pyridin-2-amine], the Ki was determined as 1 nM.

For `CN[C@@H]1CCN(c2ccnc(N[C@@H]3C[C@@H]4C[C@H]([C@H]3C)C4(C)C)c2)C1` [Example 10, 4-[(3R)-3-(Methylamino)pyrrolidin-1-yl]-N-[(1R,2R,3R,5S)-2,6,6-trimethylbicyclo[3.1.1]hept-3-yl]pyridin-2-amine], the Ki came out at 0.5 nM.

As for `CC(C)CNc1cc(N2CCNCC2)ccn1` [Example 19, N-(2-Methylpropyl)-4-piperazin-1-ylpyridin-2-amine dihydrochloride], the Ki turned out to be 45.3 nM.

With `CC(C)CNc1cc(N2CCN(C)CC2)ccn1` [Example 21, 4-(4-Methylpiperazin-1-yl)-N-(2-methylpropyl)pyridin-2-amine], the Ki came out at 51.4 nM.

For `N[C@@H]1CCN(c2ccnc(NC3CCOCC3)n2)C1` [Example 30, 4-[(3R)-3-Aminopyrrolidin-1-yl]-N-(tetrahydro-2H-pyran-4-yl)pyrimidin-2-amine], the inhibition constant (Ki) came out at 42.4 nM.

As to `CC(C)CNc1nccc(N2CCN(C)CC2)n1` [Example 31, Isobutyl-[4-(4-methyl-piperazin-1-yl)-pyrimidin-2-yl]-amine], the Ki is 69 nM.

`c1cc(N2CCNCC2)cc(NCC2CC2)n1` [Example 35, N-(Cyclopropylmethyl)-4-piperazin-1-ylpyridin-2-amine]: the inhibition constant (Ki) came out at 25.6 nM.

On to `CN1CCN(c2ccnc(NC3CC4CCC3C4)n2)CC1` (centres unmarked) [Example 44, N-[Bicyclo[2.2.1]hept-2-yl]-4-(4-methylpiperazin-1-yl)pyrimidin-2-amine], for which the Ki was found to be 31.5 nM.

The assay is the same for the next values; noted with them: membranes harvested with cell harvester; [3H]histamine 10 nM; average of results; read-out: Cell Harvester Ki.
With `C[C@H]1[C@@H](Nc2nccc(N3CCNCC3)n2)C[C@@H]2C[C@H]1C2(C)C` (stereo in doubt) [Example 71, (4-Piperazin-1-yl-pyrimidin-2-yl)-(2,6,6-trimethyl-bicyclo[3.1.1]hept-3-yl)-amine], the Ki turned out to be 377 nM.

With `CC(C)(CO)CNc1nccc(N2CC3CCN[C@H]3C2)n1` (stereo in doubt) [Example 148, 3-({4-[(3aR,6aR)-Hexahydropyrrolo[3,4-b]pyrrol-5(1H)-yl]pyrimidin-2-yl}amino)-2,2-dimethylpropan-1-ol], the inhibitory constant (Ki) was 250 nM.

As for `OCCCNc1nccc(N2CC3CCN[C@H]3C2)n1` (stereo in doubt) [Example 159, 3-({4-[(3aR,6aR)-Hexahydropyrrolo[3,4-b]pyrrol-5(1H)-yl]pyrimidin-2-yl}amino)propan-1-ol], the Ki turned out to be 266 nM.

As to `NC1CCN(c2cnnc(NCC3CC4CCC3C4)c2)C1` (stereo in doubt) [Example 304, 5-[(3S)-3-Aminopyrrolidin-1-yl]-N-(bicyclo[2.2.1]hept-2-ylmethyl)pyridazin-3-amine], the Ki was found to be 310 nM.

Take `NC1CCN(c2cnnc(NCCCO)c2)C1` (stereo in doubt) [Example 338, 3-({5-[(3S)-3-Aminopyrrolidin-1-yl]pyridazin-3-yl}amino)propan-1-ol]: the inhibitory constant (Ki) was greater than 10000 nM.

In the case of `CNC1CCN(c2cnnc(NCc3ccccn3)c2)C1` (stereo in doubt) [Example 402, 5-[(3S)-3-(Methylamino)pyrrolidin-1-yl]-N-(pyridin-2-ylmethyl)pyridazin-3-amine], the inhibition constant Ki is greater than 10000 nM.

On to `CN[C@@H]1CCN(c2ccnc(NC3CC4CCC3C4)c2)C1` (stereo partly drawn) [Example 1, Bicyclo[2.2.1]hept-2-yl[4-((3R)-3-methylamino-pyrrolidin-1-yl)-pyridin-2-yl]amine dihydrochloride], for which the Ki came out at 0.5 nM.

For the molecule `CN[C@@H]1CCN(c2ccnc(N[C@@H]3CCOC3)c2)C1` [Example 5, 4-[(3R)-3-(Methylamino)pyrrolidin-1-yl]-N-[(3R)-tetrahydrofuran-3-yl]pyridin-2-amine dihydrochloride], the Ki is 8.9 nM.

Consider `CN[C@@H]1CCN(c2ccnc(NCC3CCCO3)c2)C1` (stereo partly drawn) [Example 6, 4-[(3R)-3-(Methylamino)pyrrolidin-1-yl]-N-[tetrahydrofuran-2-ylmethyl]pyridin-2-amine dihydrochloride], for which the Ki is 35.1 nM.

In the case of `CN[C@@H]1CCN(c2ccnc(NCc3ccc(F)cc3)c2)C1` [Example 7, N-(4-Fluorobenzyl)-4-[(3R)-3-(methylamino)pyrrolidin-1-yl]pyridin-2-amine dihydrochloride], the Ki came out at 13.7 nM.

Take `CN[C@@H]1CCN(c2ccnc(NC3CC3)c2)C1` [Example 8, N-Cyclopropyl-4-[(3R)-3-(methylamino)pyrrolidin-1-yl]pyridin-2-amine dihydrochloride]: the Ki was determined as 10.6 nM.

With `CN[C@@H]1CCN(c2ccnc(N[C@H]3C[C@H]4C[C@@H]([C@@H]3C)C4(C)C)c2)C1` [Example 9, 4-[(3R)-3-(Methylamino)pyrrolidin-1-yl]-N-[(1S,2S,3S,5R)-2,6,6-trimethylbicyclo[3.1.1]hept-3-yl]pyridin-2-amine], the Ki came to 0.4 nM.

Regarding `CN[C@@H]1CCN(c2ccnc(N[C@@H]3C[C@@H]4C[C@H]([C@H]3C)C4(C)C)c2)C1` [Example 10, 4-[(3R)-3-(Methylamino)pyrrolidin-1-yl]-N-[(1R,2R,3R,5S)-2,6,6-trimethylbicyclo[3.1.1]hept-3-yl]pyridin-2-amine], the Ki came out at 0.5 nM.

Regarding `CN[C@@H]1CCN(c2ccnc(NCc3ccccc3)c2)C1` [Example 11, N-Benzyl-4-[(3R)-3-(methylamino)pyrrolidin-1-yl]pyridin-2-amine], the Ki turned out to be 12.9 nM.

For the molecule `CC(C)Nc1cc(N2CC[C@@H](N)C2)ccn1` [Example 13, 4-[(3R)-3-Aminopyrrolidin-1-yl]-N-(1-methylethyl)pyridin-2-amine], the Ki is 26.2 nM.

With `CC(C)CNc1cc(N2CC[C@H](N)C2)ccn1` [Example 14, 4-[(3S)-3-Aminopyrrolidin-1-yl]-N-(2-methylpropyl)pyridin-2-amine], the inhibition constant Ki was determined as 114 nM.

Turning to `c1cc(N2CCNCC2)cc(NC2CCCC2)n1` [Example 16, N-Cyclopentyl-4-piperazin-1-ylpyridin-2-amine], the Ki worked out at 48.2 nM.

As to `CCCNc1cc(N2CCNCC2)ccn1` [Example 17, 4-Piperazin-1-yl-N-propylpyridin-2-amine dihydrochloride], the Ki is 375 nM.

On to `c1ccc(CNc2cc(N3CCNCC3)ccn2)cc1` [Example 18, N-Benzyl-4-piperazin-1-ylpyridin-2-amine dihydrochloride], for which the inhibition constant Ki was determined as 527 nM.

Take `CC(C)CNc1nccc(N2CC[C@@H](N)C2)n1` [Example 23, 4-[(3R)-3-Aminopyrrolidin-1-yl]-N-(2-methylpropyl)pyrimidin-2-amine]: the inhibition constant (Ki) worked out at 2.7 nM.

For the molecule `N[C@@H]1CCN(c2ccnc(NCC3CC3)n2)C1` [Example 24], the inhibition constant (Ki) is 3.32 nM.

`N[C@@H]1CCN(c2ccnc(NC3CCCC3)n2)C1` [Example 25, 4-[(3R)-3-Aminopyrrolidin-1-yl]-N-cyclopentylpyrimidin-2-amine]: the inhibition constant Ki stood at 3.8 nM.

Take `CC(C)(O)CNc1nccc(N2CC[C@@H](N)C2)n1` [Example 27, 1-({4-[(3R)-3-Aminopyrrolidin-1-yl]pyrimidin-2-yl}amino)-2-methylpropan-2-ol]: the inhibition constant Ki was found to be 67.7 nM.

`N[C@@H]1CCN(c2ccnc(NC3CCC3)n2)C1` [Example 28, 4-[(3R)-3-Aminopyrrolidin-1-yl]-N-cyclobutylpyrimidin-2-amine]: the Ki worked out at 8.4 nM.

`N[C@@H]1CCN(c2ccnc(N[C@@H]3CCOC3)n2)C1` [Example 29, 4-[(3R)-3-Aminopyrrolidin-1-yl]-N-[(3R)-tetrahydrofuran-3-yl]pyrimidine-2-amine]: the inhibitory constant (Ki) was 58.5 nM.

For `N[C@@H]1CCN(c2ccnc(NC3CCOCC3)n2)C1` [Example 30, 4-[(3R)-3-Aminopyrrolidin-1-yl]-N-(tetrahydro-2H-pyran-4-yl)pyrimidin-2-amine], the Ki is 91.8 nM.

For the molecule `CC(C)CNc1nccc(N2CCN(C)CC2)n1` [Example 31, Isobutyl-[4-(4-methyl-piperazin-1-yl)-pyrimidin-2-yl]-amine], the Ki came to 76.9 nM.

As to `CN[C@@H]1CCN(c2ccnc(Nc3ccccc3)c2)C1` [Example 33, 4-[(3R)-3-(Methylamino)pyrrolidin-1-yl]-N-phenylpyridin-2-amine], the inhibition constant Ki amounted to 0.9 nM.

For `CNC1CN(c2ccnc(NCC(C)C)c2)C1` [Example 34, 4-[3-(Methylamino)azetidin-1-yl]-N-(2-methylpropyl)pyridin-2-amine], the Ki was determined as 18.1 nM.

With `c1cc(N2CCNCC2)cc(NCC2CC2)n1` [Example 35, N-(Cyclopropylmethyl)-4-piperazin-1-ylpyridin-2-amine], the inhibition constant Ki was 74.7 nM.

In the case of `COCCNc1cc(N2CCNCC2)ccn1` [Example 37, N-(2-Methoxyethyl)-4-piperazin-1-ylpyridin-2-amine], the Ki is 247 nM.

Take `c1ccc(Nc2cc(N3CCNCC3)ccn2)cc1` [Example 38, N-Phenyl-4-piperazin-1-ylpyridin-2-amine]: the Ki was determined as 275 nM.

Regarding `c1cc(N2CCNCC2)cc(NCC2CCCO2)n1` (centres unmarked) [Example 39, 4-Piperazin-1-yl-N-(tetrahydrofuran-2-ylmethyl)pyridin-2-amine], the Ki came out at 554 nM.

On to `Fc1ccc(CNc2cc(N3CCNCC3)ccn2)cc1` [Example 40, N-(4-Fluorobenzyl)-4-piperazin-1-ylpyridin-2-amine], for which the Ki was found to be 790 nM.

`CN[C@@H]1CCN(c2ccnc(NCC(C)(C)C)c2)C1` [Example 41, N-(2,2-Dimethylpropyl)-4-[(3R)-3-(methylamino)pyrrolidin-1-yl]pyridin-2-amine]: the inhibition constant Ki is 2.2 nM.

As for `CN[C@@H]1CCN(c2ccnc(NCCOC)c2)C1` [Example 42, N-(2-Methoxyethyl)-4-[(3R)-3-(methylamino)pyrrolidin-1-yl]pyridin-2-amine], the inhibitory constant (Ki) came out at 31.8 nM.

As for `N[C@@H]1CCN(c2ccnc(NC3CC4CCC3C4)n2)C1` (stereo partly drawn) [Example 43, 4-[(3R)-3-Aminopyrrolidin-1-yl]-N-[bicyclo[2.2.1]hept-2-yl]pyrimidin-2-amine], the inhibitory constant (Ki) was found to be 3.3 nM.

For the molecule `CN1CCN(c2ccnc(NC3CC4CCC3C4)n2)CC1` (centres unmarked) [Example 44, N-[Bicyclo[2.2.1]hept-2-yl]-4-(4-methylpiperazin-1-yl)pyrimidin-2-amine], the Ki was 85.7 nM.

Consider `CN1CCN(c2ccnc(NCC3CC3)n2)CC1` [Example 45, N-(Cyclopropylmethyl)-4-(4-methylpiperazin-1-yl)pyrimidin-2-amine], for which the inhibition constant Ki stood at 7.1 nM.

Still in this assay, the particulars now being: read-out: Brandel Ki.
Consider `CCCCNc1cc(N2CCNCC2)ccn1` [Example 36, N-Butyl-4-piperazin-1-ylpyridin-2-amine], for which the Ki worked out at 91.3 nM.
